# Where two headings read alike, the source gives them in different places. Positions of bridges follow the written chain, without caps; N, C: chain ends. Non-standard residues stand in square brackets, D forms with d. Residues, ends and D or L forms follow the SMILES beside them. *: point of attachment. Bip = N[C@@H](Cc1ccc(-c2ccccc2)cc1)C(=O)O; Decanoyl(3R-OH) = CCCCCCC[C@@H](O)CC(=O)*; dBip = N[C@H](Cc1ccc(-c2ccccc2)cc1)C(=O)O; dPhe(4-NH2) = Nc1ccc(C[C@@H](N)C(=O)O)cc1; X9 = CCCCCC1CCC(C(=O)*)CC1; dDab = NCC[C@@H](N)C(=O)O; dDap = NC[C@@H](N)C(=O)O; Dab = NCC[C@H](N)C(=O)O
# What was measured:
# in vitro = conditions: human
# Method in brief: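 HK2 cells were seeded at 2000 per well in DMEM/F12 with 10% FBS and left to attach for 24 h at 37 °C, 5% CO2. They were then exposed for 24 h to 3-fold peptide dilutions starting from 600 μM solutions in quadruplicate. LDH release was read at 450 nm, and CC50 was fitted from dose-response curves.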
# P. aeruginosa ATCC 27853 = conditions: ATCC 27853
# Method in brief: (§1)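 Mid-log cultures grown in Mueller Hinton broth at 37° C were tested by 2-fold broth microdilution at 5×10^5 CFU/mL final. Compounds were dissolved in water and tested over a final range of 32 to 0.015 μg/mL.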
# A. baumannii ATCC 19606 = conditions: ATCC 19606
# Method in brief: as §1
# [1] = system: S. aureus ATCC 25923, MSSA; conditions: ATCC 25923
# Method in brief: as §1
# [2] = system: K. pneumoniae ATCC 700603, MDR; conditions: ATCC 700603
# Method in brief: as §1
# [3] = system: K. pneumoniae GN_106, PmxR; conditions: GN 106, PmxR
# Method in brief: as §1
# [4] = system: K. pneumoniae GN_102 PmxR; conditions: GN 102 PmxR
# Method in brief: as §1
# [5] = system: P. aeruginosa GN_043, PmxR
# Method in brief: as §1
# A. baumannii GN_093 PmxR = conditions: GN 093 PmxR
# Method in brief: as §1
# [6] = system: P. aeruginosa GN_105, PmxR; conditions: GN 105, PmxR
# Method in brief: as §1
# [7] = system: K. pneumoniae ATCC BAA-2146, NDM-1 pos; conditions: ATCC BAA-2146
# Method in brief: as §1
# K. pneumoniae ATCC 13883 = conditions: ATCC 13883
# Method in brief: as §1
# E. coli ATCC 25922 = conditions: ATCC 25922
# Method in brief: as §1
SMILES,CC50 at 24 h (in vitro) [µM],MIC P. aeruginosa ATCC 27853 (P. aeruginosa ATCC 27853) [mg/L],MIC A. baumannii ATCC 19606 (A. baumannii ATCC 19606) [mg/L],"MIC S. aureus ATCC 25923, MSSA [1] [mg/L]","MIC K. pneumoniae ATCC 700603, MDR [2] [mg/L]","MIC K. pneumoniae GN_106, PmxR [3] [mg/L]",MIC K. pneumoniae GN_102 PmxR [4] [mg/L],"MIC P. aeruginosa GN_043, PmxR ([5]; P. aeruginosa GN_043, PmxR) [mg/L]",MIC A. baumannii GN_093 PmxR (A. baumannii GN_093 PmxR) [mg/L],"MIC P. aeruginosa GN_105, PmxR [6] [mg/L]","MIC K. pneumoniae ATCC BAA-2146, NDM-1 pos [7] [mg/L]",MIC K. pneumoniae ATCC 13883 (K. pneumoniae ATCC 13883) [mg/L],MIC E. coli ATCC 25922 (E. coli ATCC 25922) [mg/L],"MIC P. aeruginosa GN_043, PmxR ([5]; polymyxin-resistant) [mg/L]"
"CCCCCCC[C@@H](O)CC(=O)N[C@H](CCN)C(=O)N[C@H]1CCNC(=O)[C@H](CC(C)C)NC(=O)[C@H](CCN)NC(=O)[C@H](CCN)NC(=O)[C@H](CC(C)C)NC(=O)[C@@H](Cc2ccc(-c3ccccc3)cc2)NC(=O)[C@H](CCN)NC1=O [compound 5010, 3(R)OH-nC9CO-D-Dab-cyc[L-Dab-L-Dab-D-Bip-L-Leu-L-Dab-L-Dab-L-Leu]] ({Decanoyl(3R-OH)}-[dDab][Dab][Dab][dBip]L[Dab][Dab]L; lactam 2-C)",75,4,4,2,4,2,4,2,4,2,4,2,2,
"CCCCCCC[C@@H](O)CC(=O)N[C@H](CCN)C(=O)N[C@H]1CCNC(=O)[C@H](CCCNC(=N)N)NC(=O)[C@H](CCN)NC(=O)[C@H](CCN)NC(=O)[C@H](CC(C)C)NC(=O)[C@@H](Cc2ccccc2)NC(=O)[C@H](CCN)NC1=O [compound 6508, 3(R)OH-nC9CO-D-Dab-cyc[L-Dab-L-Dab-D-Phe-L-Leu-L-Dab-L-Dab-L-Arg]] ({Decanoyl(3R-OH)}-[dDab][Dab][Dab][dF]L[Dab][Dab]R; lactam 2-C)",142,2,>64,>32,16,>32,>32,,>32,32,>64,>64,16,>32
"CCCCCCC[C@@H](O)CC(=O)N[C@H](CCN)C(=O)N[C@H]1CCNC(=O)[C@H](CC(C)C)NC(=O)[C@H](CCN)NC(=O)[C@H](CCN)NC(=O)[C@H](CC(C)C)NC(=O)[C@H](C)NC(=O)[C@H](CCN)NC1=O [compound 4947, 3(R)OH-nC9CO-D-Dab-cyc[L-Dab-L-Dab-L-Ala-L-Leu-L-Dab-L-Dab-L-Leu]] ({Decanoyl(3R-OH)}-[dDab][Dab][Dab]AL[Dab][Dab]L; lactam 2-C)",213,32,>32,>32,>32,>32,>32,>32,>32,>32,>32,>32,>32,
"CCCCCCC[C@@H](O)CC(=O)N[C@H](CN)C(=O)N[C@H]1CCNC(=O)[C@H]([C@@H](C)O)NC(=O)[C@H](CCN)NC(=O)[C@H](CCN)NC(=O)[C@H](CC(C)C)NC(=O)[C@@H](Cc2ccccc2)NC(=O)[C@H](CCN)NC1=O [compound 6395, 3(R)OH-nC9CO-D-Dap-cyc[L-Dab-L-Dab-D-Phe-L-Leu-L-Dab-L-Dab-L-Thr]] ({Decanoyl(3R-OH)}-[dDap][Dab][Dab][dF]L[Dab][Dab]T; lactam 2-C)",> 300,2,16,>32,1,32,16,2,>32,2,2,8,2,
"CCCCCCC[C@@H](O)CC(=O)N[C@H](Cc1ccc(N)cc1)C(=O)N[C@H]1CCNC(=O)[C@H]([C@@H](C)O)NC(=O)[C@H](CCN)NC(=O)[C@H](CCN)NC(=O)[C@H](CC(C)C)NC(=O)[C@@H](Cc2ccccc2)NC(=O)[C@H](CCN)NC1=O [compound 6397, 3(R)OH-nC9CO-D-4NH2Phe-cyc[L-Dab-L-Dab-D-Phe-L-Leu-L-Dab-L-Dab-L-Thr]] ({Decanoyl(3R-OH)}-[dPhe(4-NH2)][Dab][Dab][dF]L[Dab][Dab]T; lactam 2-C)",> 300,>64,>64,>32,>64,>32,>32,>32,>32,>32,>64,>64,>64,
"CCCCCCC[C@@H](O)CC(=O)N[C@H](CCN)C(=O)N[C@H]1CCNC(=O)[C@H](C)NC(=O)[C@H](CCN)NC(=O)[C@H](CCN)NC(=O)[C@H](CC(C)C)NC(=O)[C@@H](Cc2ccccc2)NC(=O)[C@H](CCN)NC1=O [compound 4943, 3(R)OH-nC9CO-D-Dab-cyc[L-Dab-L-Dab-D-Phe-L-Leu-L-Dab-L-Dab-L-Ala]] ({Decanoyl(3R-OH)}-[dDab][Dab][Dab][dF]L[Dab][Dab]A; lactam 2-C)",> 300,1,>32,>32,8,16,8,,32,16,8,16,8,0.5
"CCCCCC1CCC(C(=O)N[C@H](CCN)C(=O)N[C@H]2CCNC(=O)[C@H]([C@@H](C)O)NC(=O)[C@H](CCN)NC(=O)[C@H](CCN)NC(=O)[C@H](CC(C)C)NC(=O)[C@@H](Cc3ccccc3)NC(=O)[C@H](CCN)NC2=O)CC1 (stereo partly drawn) [compound 6404, C11H21CO-D-Dab-cyc[L-Dab-L-Dab-D-Phe-L-Leu-L-Dab-L-Dab-L-Thr]] (X9-[dDab][Dab][Dab][dF]L[Dab][Dab]T; lactam 2-C)",38,0.25,64,8,0.5,>32,>32,32,>32,8,1,16,1,
"CCCCCCC[C@@H](O)CC(=O)N[C@H](CCN)C(=O)N[C@H]1CCNC(=O)[C@H]([C@@H](C)O)NC(=O)[C@H](CCN)NC(=O)[C@H](CCN)NC(=O)[C@H](Cc2ccc(-c3ccccc3)cc2)NC(=O)[C@@H](Cc2ccccc2)NC(=O)[C@H](CCN)NC1=O [compound 5607, 3(R)OH-nC9CO-D-Dab-cyc[L-Dab-L-Dab-D-Phe-L-Bip-L-Dab-L-Dab-L-Thr]] ({Decanoyl(3R-OH)}-[dDab][Dab][Dab][dF][Bip][Dab][Dab]T; lactam 2-C)",19,4,8,4,4,32,32,2,>32,2,4,16,8,

# Source: US11279733B2, “Peptide antibiotics” (priority 2017, dated 2022)
